Measured values reported in patent US20070015232A1, “Mitotic index assay” (DiscoveRx, Inc., priority 2005, published 2007).

Tests used:
[1] = tested on: Clone #69 CHO-K1 cells expressing EA-NLS/NRS and GR-PL; test: EFC assay in stable clone #69 (CHO-K1, EA-NLS/NRS and GR-PL) with or without RU486 pre-incubation; format: cell-based; details: for Avg luminescence readout / R1 luminescence readout / R3 luminescence readout / Ratio (Avg vs 0 conc): overnight, vehicle pre-incubation
Experimental: In the next experiment, a stable clone (clone #69) expressing both EA-NLS/NRS and GR-PL was isolated in a CHO-K1 parental background. […] 20,000 cells/well were plated in a 96 well white coming multi-well plate and allowed to adhere overnight. The next day, the cells were washed two times with serum free F12 media and 100 μL of serum free F12 media was added to the cells. The cells were then incubated in either vehicle (ethanol-1% final concentration) or 10 μM RU486 for one hour. To the cells, three different concentrations of dexamethasone (300, 100, 30 μM) (an agonist of GR), RU486 (30, 10, 3.33 μM), colchicine (1, 0.3, 0.1 μ/mL) or nocodazole (10, 3.33, 1.11 μg/mL) were added and the incubation went overnight at 37° C. with 5% CO2. The next day, the media was aspirated off and 100 μL of Tropix/ABI Gal screen cell lysis/substrate reagent was added to the cells. The plate was read on the Victor II reader at 30, 60 and 120 minutes.

[2] = tested on: CHO-K1+EA-NLS/NRS+GR-PL cells; test: EFC mitotic index assay, CHO-K1+EA-NLS/NRS+GR-PL cells, antibiotic selected pool (DX M19/GR pool); format: cell-based; details: 24 hours, 30 min read
Experimental: (§1) In all experiments described, 20,000 cells/well were plated in a 96 well Corning clear bottom white plate in a total volume of 100 μL. The cells were treated for 24 hours with 5 μL of either the appropriate vehicle control or varying concentrations of the six compounds listed above. The next day, 100 μL of Tropix/ABI Gal screen cell lysis buffer/substrate mixture (24:1 ratio of component) was added to the cells/media and the plate was read on the Victor II luminescent plate reader at 30, 60 and 120 minutes after the lysis/substrate addition.
(§2) The initial test of the cell cycle arresting compounds was performed on a double stable cell line having both of the constructs expressing the EA-NLS/NRS and GR-PL. (PL is β-galactosidase enzyme donor fragment and EA is the enzyme acceptor fragment available from DiscoveRx, Fremont, CA.). The parental line, C2C12 is derived from mouse muscle cells. In the experiments in which EA-NLS/NRS and GR-PL are expressed in the C2C12 parental cell line, the constructs were generated by subcloning the human GR sequence into a MFG-based retroviral vector that had been molecularly altered in a lab at Stanford. An MFG vector is described in U.S. Pat. No. 6,544,771. The EA-NLS/NRS fragment was subcloned into a wzl-based retroviral vector again molecularly altered in a lab at Stanford. In the experiments performed using a CHO-K1 parental cell line background the EA-NLS/NRS was subcloned into the Kpn I and Xba I sites of pcDNA3.1 Hygro vector from Invitrogen (catalog #V870-20). The plasmid was introduced into the cells via FuGene6 (Roche) transfection reagent. Cells were selected in the presence of 250 μg/mL of Hygromycin and single cell clones isolated that expressed the EA-NLS/NRS. The human GR gene was cloned by PCR and subcloned into the Xho I and Bam HI sites of the DiscoveRx vector-pCMV-myc-PL (C3). The plasmid was introduced into the selected EA-NLS/NRS expressing clone isolated above by FuGene 6 transfection. Another round of screening in the presence of 300-500 μg/mL of G418 was used to select GR-PL transfected clones. Clonal selection was performed to finally identify the clone that was used in these studies. In the studies using the CHO-K1+cyto-EA and cJUN-PL, the same Invitrogen pcDNA3.1 Hygro vector was used to express EA. In this case, the EA fragment was subcloned into the Kpn I/Not I sites of pcDNA3.1 Hygro. The plasmid DNA was introduced as described above using FuGene6 reagent. Cells were selected in the presence of 250 μg/mL of hygromycin and clonal selection was performed. The c-Jun gene was generated by PCR using an existing template copy of the gene and then subcloned into the Xho I/Bam HI sites of pCMV-PL-myc (C3).
In the next experiment, an antibiotic selected pool population of CHO-K1 cells that express EA-NLS/NRS and GR-PL were tested with the same six set of cell cycle blocking compounds. […] FIGS. 2a and 2b show the immunofluorescence localization of EA and GR-PL in that the blue DAPI nuclear staining can be seen to be concentrated in the nucleus, while the green fluorescein stain on the antibody (from Abcam PLC) to the glucocorticoid receptor is seen in the cytoplasm. […] Again, six tables are presented one for each of the six drugs tested.
This only occurs with compounds that block the cells in mitosis, allowing EA and ProLabel to complement.

[3] = tested on: C2C12+EA-NLS/NRS+GR-PL cells; test: EFC mitotic index assay, C2C12+EA-NLS/NRS+GR-PL cells (Stanford GR cells); format: cell-based, mouse; details: for Avg luminescence readout / R1 luminescence readout / R3 luminescence readout / Ratio (Avg vs 0 conc): 24 hours, 30 min read
Experimental: as §1, §2

[4] = tested on: CHO-K1+cyto-EA cells transfected with cJUN-PL; test: EFC mitotic index assay, CHO-K1+cyto-EA cells transiently transfected with cJUN-PL; format: cell-based; details: for Avg luminescence readout / R1 luminescence readout / R3 luminescence readout / Ratio (Avg vs 0 conc): overnight
Experimental: as §2
To further test the concept of sequestering of one β-galactosidase enzyme fragment in the nucleus (in this case PL) while localizing the other component in the cytoplasm (in this case EA) the following experiment was carried out. […] The cyto-EA cells were transiently transfected with cJUN-PL plasmid DNA. Two days after the transfection, the cells were re-plated into a 96 well Corning white clear bottom multiwell plate at 20,000 cells/well. The cells were allowed to adhere overnight and the next day were treated with titrating concentrations of the six different cell cycle blocking compounds. The incubation was carried out overnight. The next day the media was removed from the cells and 100 μL of Tropix/ABI Gal screen cell lysis/substrate reagent was added to the cells.

[5] = High conc (nocodazole 10 μg/mL, colchicine 1 μ/mL, dexamethasone 300 μM, RU486 30 μM)
[6] = Low conc (nocodazole 1.11 μg/mL, colchicine 0.1 μ/mL, dexamethasone 30 μM, RU486 3.33 μM)
[7] = Med conc (nocodazole 3.33 μg/mL, colchicine 0.3 μ/mL, dexamethasone 100 μM, RU486 10 μM)

## CC#C[C@]1(O)CC[C@H]2[C@@H]3CCC4=CC(=O)CCC4=C3[C@@H](c3ccc(N(C)C)cc3)C[C@@]21C [RU486]
[1]; [5]
  Avg luminescence readout: 2882
  R1 luminescence readout: 3199
  R3 luminescence readout: 2657
  Ratio (Avg vs 0 conc): 1
[1]; [6]
  Avg luminescence readout: 2416
  R1 luminescence readout: 2692
  R3 luminescence readout: 2298
  Ratio (Avg vs 0 conc): 1
[1]; [7]
  Avg luminescence readout: 2402
  R1 luminescence readout: 2578
  R3 luminescence readout: 2249
  Ratio (Avg vs 0 conc): 1

## COC(=O)Nc1nc2ccc(C(=O)c3cccs3)cc2[nH]1 [Nocodazole, nocodazole]
[2]; 0.3 μg/mL
  Avg luminescence readout: 15528
  R1 luminescence readout: 15003
  R3 luminescence readout: 13585
  Ratio (Avg vs 0 conc): 2
[2]; 1.0 μg/mL
  Avg luminescence readout: 24777
  R1 luminescence readout: 23225
  R3 luminescence readout: 24165
  Ratio (Avg vs 0 conc): 3
[2]; 3.3 μg/mL
  Avg luminescence readout: 23766
  R1 luminescence readout: 24010
  R3 luminescence readout: 23172
  Ratio (Avg vs 0 conc): 3
[2]; 10.0 μg/mL
  Avg luminescence readout: 25709
  R1 luminescence readout: 22978
  R3 luminescence readout: 28584
  Ratio (Avg vs 0 conc): 3
[1]; 10 μM RU486 pre-incubation for one hour
  effect of incubation with RU486 on the EFC response (in words): not blocked by the incubation with RU486
[1]; [5]
  Avg luminescence readout: 11592
  R1 luminescence readout: 11504
  R3 luminescence readout: 11616
  Ratio (Avg vs 0 conc): 4
[1]; [6]
  Avg luminescence readout: 11575
  R1 luminescence readout: 11488
  R3 luminescence readout: 11606
  Ratio (Avg vs 0 conc): 4
[1]; [7]
  Avg luminescence readout: 11445
  R1 luminescence readout: 11364
  R3 luminescence readout: 11457
  Ratio (Avg vs 0 conc): 4
[3]; 0.3 μg/mL
  Avg luminescence readout: 4443
  R1 luminescence readout: 4243
  R3 luminescence readout: 4599
  Ratio (Avg vs 0 conc): 1
[3]; 1.0 μg/mL
  Avg luminescence readout: 6354
  R1 luminescence readout: 6029
  R3 luminescence readout: 6678
  Ratio (Avg vs 0 conc): 2
[3]; 3.3 μg/mL
  Avg luminescence readout: 6068
  R1 luminescence readout: 5669
  R3 luminescence readout: 6360
  Ratio (Avg vs 0 conc): 2
[3]; 10.0 μg/mL
  Avg luminescence readout: 5867
  R1 luminescence readout: 4401
  R3 luminescence readout: 5806
  Ratio (Avg vs 0 conc): 2
[3]; treatment 1-10 μg/mL
  increase in EFC activity: ~2 fold
[4]; 3.0 μg/mL
  Avg luminescence readout: 9887
  R1 luminescence readout: 9509
  R3 luminescence readout: 9751
  Ratio (Avg vs 0 conc): 1.4
[4]; 10.0 μg/mL
  Avg luminescence readout: 12728
  R1 luminescence readout: 11991
  R3 luminescence readout: 12371
  Ratio (Avg vs 0 conc): 1.8
[4]; 30.0 μg/mL
  Avg luminescence readout: 11870
  R1 luminescence readout: 10083
  R3 luminescence readout: 12287
  Ratio (Avg vs 0 conc): 1.6
[4]; 100.0 μg/mL
  Avg luminescence readout: 14898
  R1 luminescence readout: 13010
  R3 luminescence readout: 16060
  Ratio (Avg vs 0 conc): 2.1
[4]; overnight incubation
  increase in EFC activity: ~2.1 fold
